The text below walks through data of patent US4895835A, “Muramyl peptide derivatives and use thereof” (priority 1987, dated 1990).

The test system of test [1] is influenza HA vaccine (A/Bangkok/10/83 strain, H1N1). Nature of the test: Enhancing effect on influenza HA vaccine (adjuvant activity), ELISA. Format: in vivo. The settings on record: CDF1 mouse, compound (100 μg/ml) mixed with influenza HA vaccine (100 CCA/ml). On the procedure:
(3) Enhancing effect on influenza HA vaccine (adjuvant activity)
A compound of the invention was dissolved or suspended in physiological saline (100 μg/ml). Separately, influenza HA vaccine (A/Bangkok/10/83 strain, H1N1) was dissolved in physiological saline (100 CCA/ml). These two solutions were mixed in an equivalent weight to make the test solution. Control is a solution excluded the compound of the invention from the test solution.
The test solution was administered into CDF1 mouse in a similar way to that of the test of enhancing action for hepatitis vaccine as mentioned above, to obtain primary and secondary response sera.

The test system of test [2] is B type hepatitis vaccine (HBs). Nature of the test: Enhancing effect on hepatitis vaccine (adjuvant activity), IgG antibody by ELISA. The class given is in vivo. The settings on record: CDF1 mouse; for Anti HBs-ELISA unit, Primary response serum: i.p. 0.2 ml compound (100 μg/ml) mixed with HBs vaccine, serum at 3 weeks; for Anti HBs-ELISA unit, Secondary response serum: second i.p. injection of 0.2 ml test solution, serum at 2 weeks. On the procedure: (2) Enhancing effect on hepatitis vaccine (adjuvant activity)
A compound of the invention was dissolved or suspended in physiological saline (100 μg/ml), and mixed with a solution of B type hepatitis vaccine (HBs) in physiological saline (100 μg/m) at an equivalent weight ratio to obtain the test solution. A solution excluded the compound of the invention from the test solution was used as control.
The test solution (0.2 ml) was intraperitoneally injected into CDF1 mouse (one group consisting of 10 mice). At 3 weeks after the administration, a blood was taken from the intravenous vein in eyeground of each the mice and centrifuged to obtain serum (primary response serum). Further, 0.2 ml of the test solution was again intraperitoneally injected into each mice, and at 2 weeks stage, serum was separated in the similar way (secondary response serum).
Value for IgG antibody against B type hepatitis virus of the resulting serum was measured by ELISA method.

Test [3] relates to Psud. aeruginosa (NCTC 10490). Nature of the test: Phylactic effect, Psud. aeruginosa infection. The class given is in vivo. The settings on record: ICR mouse; compound 500 μg/ml, 0.2 ml i.p. one day before infection i.p. 1×10^7 /mouse; after 7 days of infection. On the procedure: (§1) A solution of a compound of the invention in physiological saline (500 μg/ml), 0.2 ml was intraperitoneally injected into ICR mouse (20 mice per group). After a day, E. coli (JC-2) and Psud. aeruginosa (NCTC 10490) were incubated through intraperitoneal route so as to be at concentration of 1×10^7 /mouse. Survival rate after 7 days of infection was measured.

Test [4] has as its system leukemia cells of L-1210 mouse. Nature of the test: Activation for macrophages: cytostatic rate of intraperitoneal macrophages on leukemia cells. The settings on record: CDF1 mouse i.p. 500 μg/ml, 0.2 ml; macrophages collected after 4 days; macrophages:L-1210 cells 20:1; 72 hours. Format: in vivo. On the procedure: (4) Activation for macrophages
A test solution of a compound of the invention in physicological saline (500 μg/ml, 0.2 ml) was intraperioneally injected into CDF1 mouse (one group consisting of mice). Intraperioneal macrophages which were collected after 4 days and leukemia cells of L-1210 mouse were mixed at the cell ratio of 20 and 1. Each 200 μl of the mixture was put on a microplate having 96 holes. After 72 hours, numbers of cells in each holes were counted, and cytostatic rate of the mixture was measured.

Test [5] concerns E. coli (JC-2). Kind of test: Phylactic effect, E. coli infection. The class given is in vivo. The settings on record: ICR mouse; compound 500 μg/ml, 0.2 ml i.p. one day before infection i.p. 1×10^7 /mouse; after 7 days of infection. On the procedure: as §1
Test [6] is described as follows: Stimulation effect on antibody producing cells (plaque numbers, Cunningham technique). The class given is in vivo, ICR mouse. The settings on record: for Plaque No.: ICR mouse, SRBC i.v. and compound 500 μg/ml, 0.2 ml i.v., splenic cells after 4 days; for Stimulation index: plaque number relative to control (saline) = 1. On the procedure:
(5) Stimulation effect on anti-body precluding cells
A solution of sheep […] (SRBC) in phosphate buffered physiological saline (5×10^7 cells/ml), 0.2 ml was injected into tail intravenous vein of ICR mouse (7 mice per group). At the same time, a solution of a compound of the invention in physiological saline (500 μg/ml), 0.2 ml was similarly injected. After 4 days, lien was picked up from the treated mouse to obtain splenic cells. Plaque numbers were measured by Cunningham technique.

Test [7] deals with Meth A fibrosarcomas. Kind of test: Antitumour effect, Meth A fibrosarcoma. The settings on record: BALB/C mouse; s.c. 0.2 ml mixture of Meth A cells (1×10^6 cells/ml) and compound (1,000 μg/ml); after 35 days. The class given is in vivo. On the procedure: Meth A fibrosarcomas were suspended in phosphate buffered physiological saline (1×10^6 cells/ml). Separately, a solution of a compound of the invention in physiological saline was prepared (1,000 μg/ml). An equivalent weight mixture of these two solution (0.2 ml) was subcutaneously injected into BALB/C mouse (20 mice per group). Survival rate after 35 days was measured.

In test [8] the test system is BCG killed vaccine. Kind of test: Enhancing action on BCG vaccine (adjuvant activity), 24 hours foot-pad test. Format: in vivo. The settings on record: ICR mouse; s.c. 0.2 ml mixture of BCG killed vaccine (100 μg/ml) and compound in Freund's incomplete adjuvant (1000 μg/ml); tuberculin 10 μg after 14 days; measured after 24 hours. On the procedure:
(1) Enhancing action on BCG vaccine (adjuvant activity)
0.2 ml of an equivalent weight mixture of a solution of BCG killed vaccine in physiological saline (100 μg/ml) and a solution of a compound of the invention in Freund's incomplete adjuvant (1000 μg/ml) was subcutaneously injected to the back of ICR mouse (one group consisting of 7 mice). After 14 days, 10 μg of tuberculin was intradermally injected into the hind foot-pad. Swelling of the foot-pad was measured after 24 hours (24 hours foot-pad test).
The control is the above mentioned mixture excluded a compound of the invention.

As for `CCCCCCCCCCCCCC(=O)O[C@H](CCCCCCCCCCC)CC(=O)OC[C@H]1OC[C@H](NC(C)=O)[C@@H](O[C@H](C)C(=O)N[C@@H](C)C(=O)N[C@H](CCC(=O)OC)C(N)=O)[C@@H]1O` [Example 5, N-[[2-O-{2-Acetamido-1,5-anhydro-2,3-dideoxy-6-O-[(3R)-3-tetradodecanoyloxytetradecanoyl]-D-glucitol-3-yl}-D-lactoyl]]-L-alanyl-D-isoglutamine methyl ester], in test [1], the “Anti-influenza HA virus ELISA unit, Primary response serum” value is listed as 1,800 ELISA unit and the “Anti-influenza HA virus ELISA unit, Secondary response serum” value is listed as 28,000 ELISA unit. Further, in test [2], the “Anti HBs-ELISA unit, Primary response serum” value is 3,600 ELISA unit and the “Anti HBs-ELISA unit, Secondary response serum” value is recorded as 120,000 ELISA unit. Further, the “Survival rate, Psud. aeruginosa” value in test [3] was 55%. The same molecule had a Cytostatic rate in test [4] of 58.6 ± 2.9%. Moreover, the “Survival rate, E. coli” value in test [5] is 70%. Moreover, in test [6], the “Plaque No.” value is 5.83 ± 3.2 × 10^3 and the Stimulation index is 1.2. For the same molecule, the Survival rate in test [7] is recorded as 35%. Moreover, the “Swelling of Foot-pad” value in test [8] is recorded as 69.3 ± 18.8 × 0.01 mm.

With `CCCCCCCCCCCCCCCC(=O)O[C@H](CCCCCCCCCCC)CC(=O)OC[C@H]1OC[C@H](NC(C)=O)[C@@H](O[C@H](C)C(=O)N[C@@H](C)C(=O)N[C@H](CCC(=O)OC)C(N)=O)[C@@H]1O` [Example 6], in test [1], the “Anti-influenza HA virus ELISA unit, Primary response serum” value is on record as 2,500 ELISA unit and the “Anti-influenza HA virus ELISA unit, Secondary response serum” value is recorded as 30,000 ELISA unit. For the same molecule, in test [2], the “Anti HBs-ELISA unit, Primary response serum” value is 6,200 ELISA unit and the “Anti HBs-ELISA unit, Secondary response serum” value is 220,000 ELISA unit. Moreover, the “Survival rate, Psud. aeruginosa” value in test [3] came to 50%. In addition, the Cytostatic rate in test [4] was 42.6 ± 3.2%. The “Survival rate, E. coli” value in test [5] came to 60%. Moreover, in test [6], the “Plaque No.” value is reported as 6.81 ± 4.8 × 10^3 and the Stimulation index is on record as 1.4. Also, the Survival rate in test [7] came to 30%. Moreover, the “Swelling of Foot-pad” value in test [8] was found to be 86.4 ± 22.1 × 0.01 mm.

On to `CCCCCCCCCCCC(=O)O[C@H](CCCCCCCCCCC)CC(=O)OC[C@H]1O[C@@H](S)[C@H](NC(C)=O)[C@@H](O[C@H](C)C(=O)N[C@@H](C)C(=O)N[C@H](CCC(=O)OC)C(N)=O)[C@@H]1O` [Example 7, N-[[2-O-{2-Acetamido-2,3-dideoxy-6-O-[(3R)-3-dodecanoyloxytetradecanoyl]-1-thio-β-D-glucopyranos-3-yl}-D-lactoyl]]-L-alanyl-D-isoglutamine methyl ester], for which, in test [1], the “Anti-influenza HA virus ELISA unit, Primary response serum” value is listed as 2,000 ELISA unit and the “Anti-influenza HA virus ELISA unit, Secondary response serum” value is 26,000 ELISA unit. In test [2], the “Anti HBs-ELISA unit, Primary response serum” value is on record as 2,500 ELISA unit and the “Anti HBs-ELISA unit, Secondary response serum” value is on record as 110,000 ELISA unit. Also, the “Survival rate, Psud. aeruginosa” value in test [3] is on record as 20%. The molecule also registered a Cytostatic rate in test [4] of 22.8 ± 2.6%. Moreover, the “Survival rate, E. coli” value in test [5] is listed as 30%. Moreover, in test [6], the “Plaque No.” value is on record as 10.88 ± 9.8 × 10^3 and the Stimulation index turned out to be 2.3. Further, in test [7], the Survival rate amounted to 10%. Also, the “Swelling of Foot-pad” value in test [8] amounted to 50.6 ± 13.6 × 0.01 mm.
